Like-named read-outs stand apart in the source and are kept apart here.
Tests used:
[1] = system: Rice (Oryza sativa) 'Cybonee'; conditions: PRE, direct-seeded flooded rice
Experimental: (§1) Rice (Oryza sativa) crop varieties (‘Cybonee’, ‘Jupiter’, and ‘Taggart’) and red rice (Oryza sativa) were planted in 6 inch plastic pots containing sterile top soil. Eight to ten seeds of each species were seeded at 12 o'clock, 3 o'clock, 6 o'clock or 9 o'clock around the pot. The pots were watered after planting. […] The test solutions were applied using a compressed air track spray chamber at 30 gallons per acre using a Teejet 8001E nozzle at 40 PSI, three replicates per test rate. After treatment, the pots were watered lightly and transferred to trays in a greenhouse. After the plants were two inches in height the trays were flooded with water and maintained as such for 14 days. The trays were emptied of water and the pots were maintained by regular watering for 4 more days. At 14, 21 and 28 days after treatment (DAT) the plants were evaluated versus untreated control pots containing the same rice and weeds using a scale of 0% (no control) to 100% (complete plant death).

[2] = system: Rice (Oryza sativa) 'Jupiter'; conditions: PRE, direct-seeded flooded rice
Experimental: as §1

[3] = system: rice (Taggart variety); assay: Pre-emergent weed control in direct-seeded flooded rice (Example 2), rice injury; type: in vivo; conditions: for % Rice Injury Rice Taggert: pre-emergent, flooded, 28 Days After Treatment
Description: Seeds of crops, rice (Taggart and Wells varieties) and weeds, yellow nutsedge (Cyperus esculentus), barnyardgrass (Echinochloa crus-galli), large crabgrass (Digitaria sanguinalis), hemp sesbania (Sesbania herbacea), Benghal dayflower (Commelina benghalensis), red rice (Oryza sativa) and broadleaf signalgrass (Urochloa platyphylla) were planted in two gallon pots containing top soil. Each pot was watered well before the application of mesotrione (Callisto® Herbicide from Syngenta Crop Protection).

CS(=O)(=O)c1ccc(C(=O)C2C(=O)CCCC2=O)c([N+](=O)[O-])c1 [Mesotrione, mesotrione]
Percent rice injury Cybonet ([1]; 14 DAT, 12.5 g ai/ha): 2 B % | Percent rice injury Cybonet ([1]; 14 DAT, 25 g ai/ha): 0 B % | Percent rice injury Cybonet ([1]; 14 DAT, 37.5 g ai/ha): 3 B % | Percent rice injury Cybonet ([1]; 14 DAT, 50 g ai/ha): 4 B % | Percent rice injury Cybonet ([1]; 14 DAT, 62.5 g ai/ha): 11 B % | Percent rice injury Cybonet ([1]; 14 DAT, 75 g ai/ha): 9 B % | Percent rice injury Cybonet ([1]; 14 DAT, 87.5 g ai/ha): 12 B % | Percent rice injury Cybonet ([1]; 14 DAT, 100 g ai/ha): 11 B % | Percent rice injury Cybonet ([1]; 21 DAT, 12.5 g ai/ha): 1 C % | Percent rice injury Cybonet ([1]; 21 DAT, 25 g ai/ha): 4 C % | Percent rice injury Cybonet ([1]; 21 DAT, 37.5 g ai/ha): 8 C % | Percent rice injury Cybonet ([1]; 21 DAT, 50 g ai/ha): 6 C % | Percent rice injury Cybonet ([1]; 21 DAT, 62.5 g ai/ha): 13 BC % | Percent rice injury Cybonet ([1]; 21 DAT, 75 g ai/ha): 32 ABC % | Percent rice injury Cybonet ([1]; 21 DAT, 87.5 g ai/ha): 44 AB % | Percent rice injury Cybonet ([1]; 21 DAT, 100 g ai/ha): 49 A % | Percent rice injury Cybonet ([1]; 28 DAT, 12.5 g ai/ha): 5 CD % | Percent rice injury Cybonet ([1]; 28 DAT, 25 g ai/ha): 7 CD % | Percent rice injury Cybonet ([1]; 28 DAT, 37.5 g ai/ha): 9 CD % | Percent rice injury Cybonet ([1]; 28 DAT, 50 g ai/ha): 7 CD % | Percent rice injury Cybonet ([1]; 28 DAT, 62.5 g ai/ha): 17 BCD % | Percent rice injury Cybonet ([1]; 28 DAT, 75 g ai/ha): 32 ABC % | Percent rice injury Cybonet ([1]; 28 DAT, 87.5 g ai/ha): 52 A % | Percent rice injury Cybonet ([1]; 28 DAT, 100 g ai/ha): 62 A % | Percent rice injury Jupiter ([2]; 14 DAT, 12.5 g ai/ha): 2 B % | Percent rice injury Jupiter ([2]; 14 DAT, 25 g ai/ha): 2 B % | Percent rice injury Jupiter ([2]; 14 DAT, 37.5 g ai/ha): 4 B % | Percent rice injury Jupiter ([2]; 14 DAT, 50 g ai/ha): 2 B % | Percent rice injury Jupiter ([2]; 14 DAT, 62.5 g ai/ha): 5 B % | Percent rice injury Jupiter ([2]; 14 DAT, 75 g ai/ha): 6 B % | Percent rice injury Jupiter ([2]; 14 DAT, 87.5 g ai/ha): 12 B % | Percent rice injury Jupiter ([2]; 14 DAT, 100 g ai/ha): 11 B % | Percent rice injury Jupiter ([2]; 21 DAT, 12.5 g ai/ha): 0 D % | Percent rice injury Jupiter ([2]; 21 DAT, 25 g ai/ha): 0 D % | Percent rice injury Jupiter ([2]; 21 DAT, 37.5 g ai/ha): 1 CD % | Percent rice injury Jupiter ([2]; 21 DAT, 50 g ai/ha): 3 CD % | Percent rice injury Jupiter ([2]; 21 DAT, 62.5 g ai/ha): 5 CD % | Percent rice injury Jupiter ([2]; 21 DAT, 75 g ai/ha): 13 BCD % | Percent rice injury Jupiter ([2]; 21 DAT, 87.5 g ai/ha): 22 BC % | Percent rice injury Jupiter ([2]; 21 DAT, 100 g ai/ha): 28 B % | Percent rice injury Jupiter ([2]; 28 DAT, 12.5 g ai/ha): 2 D % | Percent rice injury Jupiter ([2]; 28 DAT, 25 g ai/ha): 2 D % | Percent rice injury Jupiter ([2]; 28 DAT, 37.5 g ai/ha): 4 D % | Percent rice injury Jupiter ([2]; 28 DAT, 50 g ai/ha): 5 D % | Percent rice injury Jupiter ([2]; 28 DAT, 62.5 g ai/ha): 8 CD % | Percent rice injury Jupiter ([2]; 28 DAT, 75 g ai/ha): 20 BCD % | Percent rice injury Jupiter ([2]; 28 DAT, 87.5 g ai/ha): 44 B % | Percent rice injury Jupiter ([2]; 28 DAT, 100 g ai/ha): 41 BC % | % Rice Injury Rice Taggert ([3]; 6 g ai/ha): 0% | % Rice Injury Rice Taggert ([3]; 12 g ai/ha): 2% | % Rice Injury Rice Taggert ([3]; 25 g ai/ha): 4% | % Rice Injury Rice Taggert ([3]; 50 g ai/ha): 8% | % Rice Injury Rice Taggert ([3]; 100 g ai/ha): 10% | % Rice Injury Rice Taggert ([3]; 200 g ai/ha): 53% | safety on white rice, Taggart ([3]; summary of Table 7 data): safe

From US9635854B2, “Controlling red rice with mesotrione” (FMC Corporation, priority 2014, dated 2017)
